Results reported in article PMC6770473, “Proximity ligation assay to study protein–protein interactions of proteins on two different cells” (Biotechniques, 2018).
“Also recorded” adds a separate entry of the source.

B1: CD2: T-cell surface adhesion protein, binding partner of CD58 (protein)
chain: KEITNALETWGALGQDINLDIPSFQMSDDIDDIKWEKTSDKKKIAQFRKEKETFKEKDTYKLFKNGTLKIKHLKTDDQDIYKVSIYDTKGKNVLEKIFDLKIQERVSKPKISWTCINTTLTCEVMNGTDPELNLYQDGKHLKLSQRVITHKWTTSLSAKFKCTAGNKVSKESSVEPVSCPEKGLDIYLIIGICGGGSLLMVFVALLVFYITKRKKQRSRRNDEELETRAHRVATEERGRKPHQIPASTPQNPATSQHPPPPPGHRSQAPSHRPPPPGHRVQHQPQKRPPAPSGTQVHQQKGPPLPRPRVQPKPPHGAAENSLSPSSN

Columns and labels:
[1] = tested on: CD2–CD58 interaction; test: Proximity ligation assay (PLA), Jurkat T cells / HFLS-RA cells co-culture; type: cell-based, human; settings: for PPI inhibition by BODIPY conjugate (red fluorescence): BODIPY conjugate of SFTI-a, concentration not printed, compared to control without any peptide; for reduction in number of red dots: compared with control, p < 0.001; for PPI inhibition, number of red dots (ImageJ): vs untreated wells, p < 0.0001 (SAS, GLM)
Experimental: (§1) • Both T cells and HFLS-RA cells were grown to 70% confluency. • Approximately 20,000 Jurkat cells were added to each well, and the chamber slides were incubated for 30 min at 37°C with 5% CO2. • Approximately 10,000 HFLS-RA cells were treated with different concentrations of SFTI-a peptide separately for 2 h at 4°C and added over Jurkat cells that were previously coated onto the well chamber slides. • The slides were incubated for 48 h at 37°C with 5% CO2.
• The medium was gently removed from the corners of the wells. • Enough chilled methanol to cover the surface was added to each well for fixing the cells. • After incubating the slides for 15 min at −20°C, the methanol was removed, and PBS was used to hydrate the slides. • The slides were washed once more with PBS. • Two drops of blocking solution was added to each well, and they were incubated for 90 min at room temperature in a moist chamber.
• The blocking solution was removed, and the slides were washed gently with PBS. • The CD58 and CD2 (Santa Cruz Biotechnology) primary antibodies were used at a dilution of […] by diluting with antibody diluent solution provided in kit (2 μl [CD58 Ab] + 2 μl [CD2 Ab] + 196 μl antibody diluent solution per well). • After addition of primary antibody solution, the slides were incubated overnight at 4°C in a moist chamber with gentle shaking.
• The primary antibody solution was removed, and each well was washed very gently with 100 μl of PBS. • The probe solution was prepared using 1:1:4 ratio of positive probe:negative probe:antibody diluent solution, respectively. • After removing PBS, approximately 80 μl of probe solution was added to each well, which were incubated at 37°C for 1 h in a moist chamber.
• The probe solution was discarded, and all wells were washed twice with 100 μl of wash buffer A. • Ligase solution was prepared by mixing together 16 μl of ligation solution + 2 μl of ligase + 62 μl of high purified water. • 80 μl of this freshly prepared ligase solution was added gently to each well, which were incubated at 37°C for 30 min in a moist chamber.
• All procedures from this step forward were carried out in a dark (light-protected) environment. • After removing the ligase solution, the wells were washed gently twice with wash buffer A. • Amplification/polymerase solution was prepared by mixing together 1 μl polymerase + 16 μl amplification (red) solution + 63 μl purified water. • 80 μl of the above solution was added to each well in the dark, and the plates were incubated in a 37°C moist chamber in the dark for 100 min.
• Amplification/polymerase solution was removed from each well, and they were washed gently twice with 120 μl of wash buffer B. • 0.01x wash buffer B (in phosphate-buffered saline [PBS]) was prepared, and each well was washed with this solution. • The well on slides were removed (wells are removed after all the washing step to prepare the slide for microscopic imaging). • Keeping the slide surface slightly wet with 0.01x wash buffer B, a small amount of mounting medium with DAPI solution was added to the slide. • Coverslips were placed over the slides, and images were obtained by using an Olympus Fluoview 1.0 confocal microscope with DAPI and Texas Red filters.
Wash buffers A and B were provided in the kit. The composition of the buffers is not disclosed by the vendor. A bio-protocol by Lin et al. provides the composition of Duolink in situ buffers A and B. The incubation time of 48 h was established by carrying out PLA at 24- and 48-h times.
Control experiments were conducted with HFLS-RA cells and T cells without addition of primary antibodies to CD2 and CD58 but with addition of secondary antibodies and PLA probes. Experiments were performed as described in steps 1–7 above.
Experiments with HFLS-RA cells and T cells were carried out as described above by adding primary and secondary antibodies only to CD58 and with PLA probes. […]

[2] = tested on: CD58 on the cell surface of HFLS-RA cells; test: Binding of SFTI-a BODIPY conjugate to HFLS-RA cells (fluorescence microscopy); type: cell-based, human; settings: green fluorescence of BODIPY, Mg+ green filter (excitation 507, emission 531), 60x, concentration not given
Experimental: Synthesis of cyclic peptide SFTI-a, Cyclo(CKASAPPSCYDGDD), was carried out in three major steps: 1) Linear sequence synthesis with an automatic peptide synthesizer (Protein Technologies, Inc., AZ, USA); 2) head-to-tail cyclization; and 3) disulfide bond formation. For fluorescent labeling of peptide SFTI-a, Lys in the peptide sequence was replaced with Lys containing an azide side chain. The azide side chain was used to conjugate fluorescent label 4,4-difluoro-4-bora-3a,4a-diaza-s-indacene (BODIPY), resulting in the conjugate Cyclo(CK-(BODIPY)-ASAPPSCYDGDD). The detailed procedure for synthesis of the peptide is described in our previous work. Peptides SFTI-a and SFTI-a with lysine azide (N3) and fluorescence-labeled SFTI-a were purified by preparative HPLC (Waters Corp., MA, USA) using acetonitrile and water containing 0.1% TFA. Molecular weights of the synthesized peptide and the conjugate were confirmed by mass spectrometry. BODIPY was obtained from Dr Vicente, Department of Chemistry, Louisiana State University, LA, USA.
as §1
The microscopic visualization was carried out on an Olympus Fluoview FV10i confocal microscope. DAPI (excitation 359, emission 461) and Texas Red (excitation 595, emission 612) filters were used for detection purposes at 60x zoom. For SFTI-a BODIPY conjugate, a Mg+ green (excitation 507, emission 531) filter was used. Different images were taken from each well containing different concentrations of SFTI-a and cells only. All images were taken in a single plane and at 60x magnification.

[3] = tested on: CD2–CD58 interaction; settings: cited from earlier work
Excerpt: (§2) In almost all physiological processes, the medium for communication between two cells is facilitated by the interaction of proteins. The up- or down-regulation of proteins and the deregulated interaction of these proteins usually lead to disease conditions. Rational drug designs targeting these protein–protein interactions (PPI) have gained much popularity in the past decade. […] Many proteins interact at the cell surface to send signals inside the cell from the extracellular region, and PPI on the cell surface are targ ...

[4] = tested on: CD58 protein; settings: cited from earlier work
Excerpt: as §2

[5] = tested on: cell adhesion in the immune response; settings: cell-based in vitro and ex vivo assays; cited from earlier work
Excerpt: as §2

[6] = molecular target: CD58 adhesion domain; settings: relatively weak but highly specific interaction; background statement, reference printed only at the preceding sentence; read-out: Kd of CD2–CD58 interaction; cited from earlier work
Excerpt: as §2

[7] = listed as BODIPY conjugate of SFTI-a

Molecule | PPI inhibition by BODIPY conjugate (red fluorescence) [1] | PPI inhibition by BODIPY conjugate (red fluorescence) [1, 7] | binding to CD58 on HFLS-RA cell surface [2] | binding to CD58 on HFLS-RA cell surface [2, 7] | reduction in number of red dots ([1]; 50 nM SFTI-a) | reduction in number of red dots ([1]; 250 nM SFTI-a) | PPI inhibition, number of red dots (ImageJ) ([1]; 10 μM SFTI-a) | PPI inhibition, number of red dots (ImageJ) ([1]; 50 μM SFTI-a) | decrease in red dots (CD2–CD58 PPI inhibition) ([1]; 100 μM SFTI-a, HFLS-RA cells treated 2 h at 4°C, added over Jurkat cells, 48 h at 37°C, confocal microscopy 60x, vs cells without peptide) | PPI inhibition, number of red dots (ImageJ) ([1]; 100 μM SFTI-a) | PPI inhibition at different concentrations (dose dependence) ([1]; different concentrations of SFTI-a (50 nM, 250 nM, 1 μM, 10 μM, 50 μM, 100 μM), HFLS-RA cells treated 2 h at 4°C, co-culture with Jurkat cells 48 h at 37°C, red dots) | inhibition of CD2–CD58 interaction [3] | binding to CD58 [4] | inhibition of cell adhesion in the immune response, suppression of T-cell immune response [5] | Kd [6] [µM]
Cyclo(CK-(BODIPY)-ASAPPSCYDGDD) (bicyclic or more) [SFTI-a conjugate, fluorescently labeled peptide with BODIPY attachment via azide side chain of Lys] | inhibit the interaction between Jurkat cells and HFLS-RA cells | able to inhibit PPI as shown by a decrease in red fluorescence compared to control | bound to the cell surface of HFLS-RA cells as shown by green fluorescence of BODIPY | green fluorescence on HFLS-RA cells due to binding of a conjugate of SFTI-a to CD58 on cells |  |  |  |  |  |  |  |  |  |  | 
Cyclo(CKASAPPSCYDGDD) (bicyclic or more) [SFTI-a] |  |  | bind to CD58 on the cell surface |  | significant reduction in a number of red dots | significant reduction in a number of red dots | significant in comparison with that of untreated wells | significant in comparison with that of untreated wells | significant decrease in red dots; also recorded: decrease in the number of red dots | significant in comparison with that of untreated wells | significant decrease in bright red spots; also recorded: dose-dependent inhibition of the interaction between CD2 and CD58 proteins | inhibits CD2–CD58 interaction | binds to the CD58 protein | potent compound for inhibiting cell adhesion in the immune response | 
B1 |  |  |  |  |  |  |  |  |  |  |  |  |  |  | 1 to 10
